“And” between values parts separate entries of the source, which are not always exact repeats. Equal values may be shown once. Inconclusive results and toxic doses are left out.
System: CD2F1 mice, intracerebral P388 leukemia, median survival T/C%
Assay: NCI In Vivo Anticancer Drug Screen. Data for tumor model P388 Leukemia (intracerebral) in CD2F1 (CDF1) mice
Conditions: endpoint: median survival time, higher = longer survival
Experimental: The antitumor activity of compounds was measured in mice bearing transplantable tumors. Survival or tumor size were measured and the results are expressed as the measurement made in the treated group (T) divided by the measurement made in the vehicle treated control group (C). The tumor model used in this assay is P388 Leukemia (intracerebral) in CD2F1 (CDF1) mice

[1] = dose: 4.0 mg/kg/injection, schedule: Q01DX009 (ip), vehicle: saline with Tween-80
[2] = dose: 8.0 mg/kg/injection, schedule: Q01DX009 (ip), vehicle: saline with Tween-80
[3] = dose: 16.0 mg/kg/injection, schedule: Q01DX009 (ip), vehicle: saline with Tween-80
[4] = dose: 32.0 mg/kg/injection, schedule: Q01DX009 (ip), vehicle: saline with Tween-80
[5] = dose: 64.0 mg/kg/injection, schedule: Q01DX009 (ip), vehicle: saline with Tween-80
[6] = dose: 128.0 mg/kg/injection, schedule: Q01DX009 (ip), vehicle: saline with Tween-80
[7] = dose: 50.0 mg/kg/injection, schedule: Q01DX009 (ip), vehicle: saline
[8] = dose: 4.0 mg/kg/injection, schedule: Q01DX009 (ip), vehicle: saline
[9] = dose: 8.0 mg/kg/injection, schedule: Q01DX009 (ip), vehicle: saline

CC(=O)OCC1C(=O)OCC1C(=O)N1Cc2cc3ccccc3nc2C1 (stereo unspecified)
T/C [1]: 101 % of control | T/C [2]: 103 % of control | T/C [3]: 96 % of control | T/C [4]: 107 % of control | T/C [5]: 102 % of control | T/C [6]: 96 % of control

O=P1(N(CCCl)CCCl)NCCCO1 (stereo unspecified)
T/C (dose: 265.0 mg/kg/injection, schedule: Q01DX001 (ip), vehicle: saline): 163 % of control

C[C@]12C=CC(=O)C=C1CC[C@@H]1[C@@H]2CC[C@]2(C)OC(=O)CC[C@@H]12
T/C (dose: 8.0 mg/kg/injection, schedule: Q01DX009 (ip), vehicle: Klucel (hydroxypropylcellulose) (HPC)): 105 % of control and 111 % of control | T/C [2]: 95 % of control and 105 % of control | T/C (dose: 16.0 mg/kg/injection, schedule: Q01DX009 (ip), vehicle: Klucel (hydroxypropylcellulose) (HPC)): 100 % of control and 103 % of control | T/C [3]: 104 % of control and 105 % of control | T/C (dose: 32.0 mg/kg/injection, schedule: Q01DX009 (ip), vehicle: Klucel (hydroxypropylcellulose) (HPC)): 114 % of control and 102 % of control | T/C [4]: 97 % of control and 104 % of control | T/C (dose: 64.0 mg/kg/injection, schedule: Q01DX009 (ip), vehicle: Klucel (hydroxypropylcellulose) (HPC)): 100 % of control and 105 % of control | T/C [5]: 97 % of control | T/C (dose: 128.0 mg/kg/injection, schedule: Q01DX009 (ip), vehicle: Klucel (hydroxypropylcellulose) (HPC)): 91 % of control and 111 % of control | T/C [6]: 104 % of control and 112 % of control | T/C (dose: 256.0 mg/kg/injection, schedule: Q01DX009 (ip), vehicle: saline with Tween-80): 121 % of control and 94 % of control

N[C@@H](Cc1ccc(N(CCCl)CCCl)cc1)C(=O)O
T/C (dose: 0.25 mg/kg/injection, schedule: Q03HX008 (ip), vehicle: saline): 105 % of control | T/C (dose: 0.5 mg/kg/injection, schedule: Q03HX008 (ip), vehicle: saline): 115 % of control

N=[N+]=CC(=O)CCC(NC(=O)C(CCC(=O)C=[N+]=N)NC(=O)CCC(N)C(=O)O)C(=O)O (stereo unspecified)
T/C (dose: 0.05 mg/kg/injection, schedule: Q01DX005 (ip), vehicle: Klucel (hydroxypropylcellulose) (HPC)): 106 % of control | T/C (dose: 0.1 mg/kg/injection, schedule: Q01DX005 (ip), vehicle: Klucel (hydroxypropylcellulose) (HPC)): 96 % of control and 104 % of control | T/C (dose: 0.2 mg/kg/injection, schedule: Q01DX005 (ip), vehicle: Klucel (hydroxypropylcellulose) (HPC)): 100 % of control and 103 % of control | T/C (dose: 0.4 mg/kg/injection, schedule: Q01DX005 (ip), vehicle: Klucel (hydroxypropylcellulose) (HPC)): 100 % of control and 105 % of control

Nc1ncnc2c1ncn2C1OC(COP(=O)(O)O)C(O)C1O (stereo unspecified)
T/C [7]: 97 % of control | T/C (dose: 1600.0 mg/kg/injection, schedule: Q01DX009 (ip), vehicle: saline): 100 % of control and 104 % of control

CC[C@H]1CN2CCc3cc(OC)c(OC)cc3[C@@H]2C[C@@H]1C[C@H]1NCCc2cc(OC)c(OC)cc21
T/C (dose: 2.0 mg/kg/injection, schedule: Q01DX005 (ip), vehicle: Klucel (hydroxypropylcellulose) (HPC)): 113 % of control and 99 % of control | T/C (dose: 4.0 mg/kg/injection, schedule: Q01DX005 (ip), vehicle: Klucel (hydroxypropylcellulose) (HPC)): 94 % of control and 100 % of control | T/C (dose: 8.0 mg/kg/injection, schedule: Q01DX005 (ip), vehicle: Klucel (hydroxypropylcellulose) (HPC)): 119 % of control and 100 % of control

O=C1c2ccccc2C(=O)c2c(NCCNCCO)ccc(NCCNCCO)c21
T/C (dose: 4.0 mg/kg/injection, schedule: Q01DX005 (ip), vehicle: saline with Tween-80): 112 % of control | T/C [1]: 109 % of control | T/C [8]: 101 % of control and 105 % of control | T/C (dose: 8.0 mg/kg/injection, schedule: Q01DX005 (ip), vehicle: saline with Tween-80): 104 % of control | T/C [2]: 118 % of control and 121 % of control | T/C [9]: 91 % of control and 111 % of control | T/C (dose: 16.0 mg/kg/injection, schedule: Q01DX005 (ip), vehicle: saline with Tween-80): 114 % of control | T/C [3]: 119 % of control and 108 % of control | T/C (dose: 16.0 mg/kg/injection, schedule: Q01DX009 (ip), vehicle: saline): 120 % of control and 112 % of control | T/C (dose: 32.0 mg/kg/injection, schedule: Q01DX005 (ip), vehicle: saline with Tween-80): 96 % of control | T/C [4]: 87 % of control and 101 % of control | T/C (dose: 32.0 mg/kg/injection, schedule: Q01DX009 (ip), vehicle: saline): 90 % of control | T/C [5]: 98 % of control

CC1(C)N=C(N)N=C(N)N1c1ccc(OCC(=O)N2CCOCC2)c(Cl)c1
T/C (dose: 25.0 mg/kg/injection, schedule: Q01DX009 (ip), vehicle: saline): 88 % of control | T/C [7]: 111 % of control | T/C (dose: 100.0 mg/kg/injection, schedule: Q01DX009 (ip), vehicle: saline): 100 % of control

COS(C)(=O)=O
T/C (dose: 32.0 mg/kg/injection, schedule: Q01DX005 (ip), vehicle: saline): 107 % of control and 108 % of control | T/C (dose: 64.0 mg/kg/injection, schedule: Q01DX005 (ip), vehicle: saline): 97 % of control and 106 % of control | T/C (dose: 128.0 mg/kg/injection, schedule: Q01DX005 (ip), vehicle: saline): 104 % of control and 105 % of control

CN(Cc1cnc2nc(N[Si](C)(C)C)nc(N[Si](C)(C)C)c2n1)c1ccc(C(=O)NC(CCC(=O)O[Si](C)(C)C)C(=O)O[Si](C)(C)C)cc1 (stereo unspecified)
T/C (dose: 0.63 mg/kg/injection, schedule: Q01DX009 (ip), vehicle: olive oil, sesame oil, peanut oil): 110 % of control | T/C (dose: 0.63 mg/kg/injection, schedule: Q01DX009 (ip), vehicle: saline): 90 % of control | T/C (dose: 1.25 mg/kg/injection, schedule: Q01DX009 (ip), vehicle: olive oil, sesame oil, peanut oil): 110 % of control | T/C (dose: 1.25 mg/kg/injection, schedule: Q01DX009 (ip), vehicle: saline): 100 % of control | T/C (dose: 1.9 mg/kg/injection, schedule: Q04DX003 (ip), vehicle: saline): 95 % of control | T/C (dose: 2.5 mg/kg/injection, schedule: Q01DX009 (ip), vehicle: saline): 100 % of control | T/C (dose: 3.8 mg/kg/injection, schedule: Q04DX003 (ip), vehicle: saline): 95 % of control | T/C (dose: 5.0 mg/kg/injection, schedule: Q01DX009 (ip), vehicle: saline): 95 % of control | T/C (dose: 15.0 mg/kg/injection, schedule: Q04DX003 (ip), vehicle: saline): 110 % of control | T/C (dose: 30.0 mg/kg/injection, schedule: Q04DX003 (ip), vehicle: saline): 120 % of control | T/C (dose: 60.0 mg/kg/injection, schedule: Q04DX003 (ip), vehicle: saline): 115 % of control

COc1ccc2c(c1OC(C)=O)-c1cc(OC(C)=O)cc3c1C(C2)N(C(=O)CN(CCCl)CCCl)CC3 (stereo unspecified)
T/C (dose: 1.5 mg/kg/injection, schedule: Q01DX009 (ip), vehicle: DMSO): 104 % of control | T/C (dose: 3.0 mg/kg/injection, schedule: Q01DX009 (ip), vehicle: DMSO): 101 % of control | T/C (dose: 6.0 mg/kg/injection, schedule: Q01DX009 (ip), vehicle: DMSO): 100 % of control | T/C (dose: 12.0 mg/kg/injection, schedule: Q01DX009 (ip), vehicle: DMSO): 88 % of control

CC1(CO)C(O)CCC2(C)C1CCC1CC3CC12CCC3(O)CO (stereo unspecified)
T/C (dose: 12.5 mg/kg/injection, schedule: Q01DX009 (ip), vehicle: saline with Tween-80): 94 % of control | T/C (dose: 25.0 mg/kg/injection, schedule: Q01DX009 (ip), vehicle: saline with Tween-80): 113 % of control | T/C (dose: 50.0 mg/kg/injection, schedule: Q01DX009 (ip), vehicle: saline with Tween-80): 100 % of control | T/C (dose: 100.0 mg/kg/injection, schedule: Q01DX009 (ip), vehicle: saline with Tween-80): 94 % of control | T/C (dose: 200.0 mg/kg/injection, schedule: Q01DX009 (ip), vehicle: saline with Tween-80): 96 % of control

COc1cccc2c1C(=O)c1c(O)c3c(c(O)c1C2=O)C[C@@](O)(/C(C)=N/NC(=O)c1ccccc1)C[C@@H]3OC1CC(N)C(O)C(C)O1 (stereo partly specified)
T/C (dose: 1.0 mg/kg/injection, schedule: Q01DX009 (ip), vehicle: saline with Tween-80): 111 % of control | T/C (dose: 1.0 mg/kg/injection, schedule: Q01DX009 (ip), vehicle: saline): 103 % of control and 106 % of control | T/C (dose: 2.0 mg/kg/injection, schedule: Q01DX009 (ip), vehicle: saline with Tween-80): 90 % of control and 108 % of control | T/C (dose: 2.0 mg/kg/injection, schedule: Q01DX009 (ip), vehicle: saline): 113 % of control and 106 % of control | T/C [1]: 114 % of control and 116 % of control | T/C [8]: 113 % of control and 111 % of control | T/C [2]: 106 % of control and 111 % of control | T/C [9]: 100 % of control and 103 % of control | T/C [3]: 90 % of control and 94 % of control

CC1(C)N=C(N)N=C(N)N1c1ccc(CCCCc2cccc(S(=O)(=O)F)c2)c(Cl)c1
T/C [9]: 94 % of control | T/C (dose: 12.0 mg/kg/injection, schedule: Q01DX009 (ip), vehicle: saline): 116 % of control | T/C (dose: 18.0 mg/kg/injection, schedule: Q01DX009 (ip), vehicle: saline): 105 % of control | T/C (dose: 27.0 mg/kg/injection, schedule: Q01DX009 (ip), vehicle: saline): 88 % of control
